Test results: patent US9980927B2, “Use of tapentadol for inhibiting and/or treating depression and anxiety” (Gruenenthal GmbH, priority 2011, dated 2018)

Tested on: patients with inadequately managed, severe chronic low back pain with or without a neuropathic pain component
Assay: Hospital Anxiety and Depression Scale (HADS) anxiety score; open-label phase IIIb trial, tapentadol prolonged release 50-250 mg bid for up to 12 weeks
Assay type: in vivo, human patients
Settings: for HADS anxiety score, course: Baseline to Week 12
Protocol: As used herein, the “anxiety score” is a value determining the degree of the […]. The scale of anxiety scores covers the range from 0 to 21, wherein the degree of the anxiety is high in case of high values and low in case of low values. In a group of tested subjects, typically the mean or mediate values of anxiety scores are determined and referred to. The mean value is the sum of all anxiety scores divided by the number of subjects. The mediate value is the middle anxiety score in the set of determined scores. Preferably, the “anxiety score” is defined as in the experimental section.
A subgroup suffering from neuropathic pain due to lumbar radiculopathy was also investigated.
This was a multicenter, multinational, open-label, effectiveness phase IIIb trial to evaluate effectiveness and safety of tapentadol prolonged release treatment in patients with inadequately managed, severe chronic low back pain with or without a neuropathic pain component. Patients taking WHO Step II analgesics discontinued those analgesics before starting study medication; patients taking Step I analgesics and/or centrally acting co-analgesics continued on the same dose. […] All patients received tapentadol prolonged release (50-250 mg bid) for up to 12 weeks (5-week titration period and a 7-week maintenance period). Tapentadol immediate release (IR) 50 mg (twice a day, hours apart) was permitted (combined total daily dose of tapentadol prolonged release and tapentadol IR, 500 mg/day). The primary efficacy endpoint was the change from Baseline to Week 6 (when tapentadol prolonged release doses were stable) in average pain intensity on the 11-point NRS-3 using the last observation carried forward (LOCF) for imputing missing scores. The painDETECT questionnaire was used to evaluate the likelihood of a neuropathic pain component of low back pain; patients were classified as painDETECT “negative,” “unclear,” or “positive.” The population of patients classified as painDETECT negative was limited to approximately 30% of the total population.
In the painDETECT positive trial population the “diagnosis of lumbar radiculopathy” was evaluated which was defined per study protocol according following criteria: • typical dermatomal pain (radiating beyond the knee towards the foot, pain evoked by stretching within distribution of the ischiadic/femoral nerve) • signs of root dysfunction: • such as sensory impairment, motor symptoms from compression of lumbar nerve root (L4, L5, S1). • and/or absent or diminished quadriceps femoris or triceps surae reflexes. • and/or quantitative sensory testing (QST) deficit and pain distribution present in the same dermatomal area.
All subjects completed Short Form-36 (SF-36) and EuroQol-5 Dimension (EQ-5D) questionnaires and the Hospital Anxiety and Depression Scale (HADS). The Patient Global Impression of Change (PGIC) and Clinical global impression of change (CGIC) were also used as secondary endpoints. For both tests, patients completed the statement, “since I began trial treatment, I would rate my overall condition as,” using 7 possible responses (“very much worse” to “very much improved”). Adverse events were recorded throughout the trial.
In the following • (i) N is the number of subjects of the specified diagnosis group, • (ii) n is the number of subjects with data available, • (iii) “Mean” is the mean score of the subjects, i.e. the sum of all scores is divided by the number of subjects, • (iv) SD is the standard deviation, • (v) “Median” is the median score of the subjects, i.e. the middle score in the set of scores, • (vi) “Range” is the range of scores of the subjects, i.e. the range defined by the lowest and the highest score of the set of scores. First, the depression scores are presented. The total number of subjects in the clinical study: N=175

[1] = Visit 1, defined neuropathic pain N=85
[2] = Visit 1, positive diagnosis of lumbar radiculopathy-neuropathic pain subset N=44
[3] = Visit 1, presumed neuropathic pain component N=41
[4] = Visit 1, presumed or defined neuropathic pain component N=126
[5] = Visit 1, subjects with nociceptive pain N=49
[6] = Visit 5, defined neuropathic pain N=85
[7] = Visit 5, positive diagnosis of lumbar radiculopathy-neuropathic pain subset N=44
[8] = Visit 5, presumed neuropathic pain component N=41
[9] = Visit 5, presumed or defined neuropathic pain component N=126
[10] = Visit 5, subjects with nociceptive pain N=49
[11] = Visit 6, defined neuropathic pain N=85
[12] = Visit 6, positive diagnosis of lumbar radiculopathy-neuropathic pain subset N=44
[13] = Visit 6, presumed neuropathic pain component N=41
[14] = Visit 6, presumed or defined neuropathic
[15] = Visit 6, presumed or defined neuropathic pain component N=126
[16] = Visit 6, subjects with nociceptive pain N=49
[17] = Visit 7, defined neuropathic pain N=85
[18] = Visit 7, positive diagnosis of lumbar radiculopathy-neuropathic pain subset N=44
[19] = Visit 7, presumed neuropathic pain component N=41
[20] = Visit 7, presumed or defined neuropathic pain component N=126
[21] = Visit 7, subjects with nociceptive pain N=49
[22] = Visit 8, defined neuropathic pain N=85
[23] = Visit 8, positive diagnosis of lumbar radiculopathy-neuropathic pain subset N=44
[24] = Visit 8, presumed neuropathic pain component N=41
[25] = Visit 8, presumed or defined neuropathic
[26] = Visit 8, presumed or defined neuropathic pain component N=126
[27] = Visit 8, subjects with nociceptive pain N=49
[28] = Visit 9, defined neuropathic pain N=85
[29] = Visit 9, positive diagnosis of lumbar radiculopathy-neuropathic pain subset N=44
[30] = Visit 9, presumed neuropathic pain component N=41
[31] = Visit 9, presumed or defined neuropathic pain component N=126
[32] = Visit 9, subjects with nociceptive pain N=49
[33] = Visit 10, defined neuropathic pain N=85
[34] = Visit 10, positive diagnosis of lumbar radiculopathy-neuropathic pain subset N=44
[35] = Visit 10, presumed neuropathic pain component N=41
[36] = Visit 10, presumed or defined neuropathic pain component N=126
[37] = Visit 10, subjects with nociceptive pain N=49
[38] = Visit 11, defined neuropathic pain N=85
[39] = Visit 11, positive diagnosis of lumbar radiculopathy-neuropathic pain subset N=44
[40] = Visit 11, presumed neuropathic pain component N=41
[41] = Visit 11, presumed or defined neuropathic pain component N=126
[42] = Visit 11, subjects with nociceptive pain N=49
[43] = Visit 12, defined neuropathic pain N=85
[44] = Visit 12, positive diagnosis of lumbar radiculopathy-neuropathic pain subset N=44
[45] = Visit 12, presumed neuropathic pain component N=41
[46] = Visit 12, presumed or defined neuropathic
[47] = Visit 12, presumed or defined neuropathic pain component N=126
[48] = Visit 12, subjects with nociceptive pain N=49

## CC[C@@H](c1cccc(O)c1)[C@@H](C)CN(C)C [tapentadol, (−)-(1R,2R)-3-(3-dimethylamino-1-ethyl-2-methyl-propyl)-phenol]
painDETECT negative
  HADS anxiety score, course: not significantly
painDETECT unclear/positive, P<0.0001 at Visit 12
  HADS anxiety score, course: improved steadily
Positive diagnosis of lumbar radiculopathy-neuropathic pain subset, p=0.0105 at Visit 12
  HADS anxiety score, course: improved steadily
[1]
  Anxiety score Mean (SD): 8.3 (4.01)
  Anxiety score Median: 8.0
[2]
  Anxiety score Mean (SD): 8.7 (3.64)
  Anxiety score Median: 9.0
[3]
  Anxiety score Mean (SD): 7.9 (4.52)
  Anxiety score Median: 7.0
[4]
  Anxiety score Mean (SD): 8.2 (4.16)
  Anxiety score Median: 8.0
[5]
  Anxiety score Mean (SD): 5.9 (4.19)
  Anxiety score Median: 6.0
Visit 1, total subjects N=175
  Anxiety score Mean (SD): 7.6 (4.28)
  Anxiety score Median: 7.0
[6]
  Anxiety score Mean (SD): 7.2 (3.89)
  Anxiety score Median: 8.0
[7]
  Anxiety score Mean (SD): 6.8 (3.39)
  Anxiety score Median: 7.5
[8]
  Anxiety score Mean (SD): 6.7 (4.22)
  Anxiety score Median: 7.0
[9]
  Anxiety score Mean (SD): 7.0 (3.98)
  Anxiety score Median: 7.0
[10]
  Anxiety score Mean (SD): 6.1 (3.80)
  Anxiety score Median: 5.0
Visit 5, total subjects N=175
  Anxiety score Mean (SD): 6.8 (3.94)
  Anxiety score Median: 7.0
Visit 6
  Anxiety score change from baseline Mean (SD): −1.6 (3.58)
  Anxiety score change from baseline Median: −1.0
Visit 6, defined neuropathic
  Anxiety score change from baseline Mean (SD): −1.4 (3.44)
  Anxiety score change from baseline Median: −1.0
[11]
  Anxiety score Mean (SD): 6.9 (3.66)
  Anxiety score Median: 6.0
Visit 6, lumbar radiculopathy
  Anxiety score change from baseline Mean (SD): −1.4 (3.88)
  Anxiety score change from baseline Median: −0.5
Visit 6, nociceptive
  Anxiety score change from baseline Mean (SD): −0.3 (2.93)
  Anxiety score change from baseline Median: 0.0
[12]
  Anxiety score Mean (SD): 7.1 (3.46)
  Anxiety score Median: 7.5
[13]
  Anxiety score Mean (SD): 6.9 (3.99)
  Anxiety score Median: 6.0
[14]
  Anxiety score change from baseline Mean (SD): −1.5 (3.47)
  Anxiety score change from baseline Median: −1.0
[15]
  Anxiety score Mean (SD): 6.9 (3.75)
  Anxiety score Median: 6.0
[16]
  Anxiety score Mean (SD): 5.8 (4.68)
  Anxiety score Median: 5.0
Visit 6, total
  Anxiety score change from baseline Mean (SD): −1.2 (3.36)
  Anxiety score change from baseline Median: −1.0
Visit 6, total subjects N=175
  Anxiety score Mean (SD): 6.6 (4.02)
  Anxiety score Median: 6.0
[17]
  Anxiety score Mean (SD): 6.1 (3.91)
  Anxiety score Median: 6.0
[18]
  Anxiety score Mean (SD): 6.1 (3.85)
  Anxiety score Median: 6.0
[19]
  Anxiety score Mean (SD): 5.9 (4.08)
  Anxiety score Median: 5.5
[20]
  Anxiety score Mean (SD): 6.0 (3.95)
  Anxiety score Median: 6.0
[21]
  Anxiety score Mean (SD): 5.6 (4.15)
  Anxiety score Median: 5.0
Visit 7, total subjects N=175
  Anxiety score Mean (SD): 5.9 (3.99)
  Anxiety score Median: 6.0
Visit 8
  Anxiety score change from baseline Mean (SD): −2.9 (3.11)
  Anxiety score change from baseline Median: −2.0
Visit 8, defined neuropathic
  Anxiety score change from baseline Mean (SD): −2.2 (3.77)
  Anxiety score change from baseline Median: −2.0
[22]
  Anxiety score Mean (SD): 6.0 (3.66)
  Anxiety score Median: 5.0
Visit 8, lumbar radiculopathy
  Anxiety score change from baseline Mean (SD): −2.4 (4.23)
  Anxiety score change from baseline Median: −1.0
Visit 8, nociceptive
  Anxiety score change from baseline Mean (SD): −0.7 (3.88)
  Anxiety score change from baseline Median: −1.0
[23]
  Anxiety score Mean (SD): 5.9 (3.74)
  Anxiety score Median: 5.0
[24]
  Anxiety score Mean (SD): 4.9 (4.04)
  Anxiety score Median: 4.0
[25]
  Anxiety score change from baseline Mean (SD): −2.4 (3.57)
  Anxiety score change from baseline Median: −2.0
[26]
  Anxiety score Mean (SD): 5.7 (3.80)
  Anxiety score Median: 5.0
[27]
  Anxiety score Mean (SD): 5.4 (4.40)
  Anxiety score Median: 4.0
Visit 8, total
  Anxiety score change from baseline Mean (SD): −1.9 (3.72)
  Anxiety score change from baseline Median: −2.0
Visit 8, total subjects N=175
  Anxiety score Mean (SD): 5.6 (3.95)
  Anxiety score Median: 5.0
[28]
  Anxiety score Mean (SD): 6.1 (3.99)
  Anxiety score Median: 5.0
[29]
  Anxiety score Mean (SD): 6.2 (4.01)
  Anxiety score Median: 5.0
[30]
  Anxiety score Mean (SD): 6.1 (5.10)
  Anxiety score Median: 6.0
[31]
  Anxiety score Mean (SD): 6.1 (4.32)
  Anxiety score Median: 5.0
[32]
  Anxiety score Mean (SD): 4.6 (3.34)
  Anxiety score Median: 4.0
Visit 9, total subjects N=175
  Anxiety score Mean (SD): 5.7 (4.10)
  Anxiety score Median: 4.0
[33]
  Anxiety score Mean (SD): 6.1 (3.98)
  Anxiety score Median: 6.0
[34]
  Anxiety score Mean (SD): 6.1 (3.85)
  Anxiety score Median: 6.0
[35]
  Anxiety score Mean (SD): 5.5 (5.46)
  Anxiety score Median: 4.0
[36]
  Anxiety score Mean (SD): 5.9 (4.46)
  Anxiety score Median: 5.0
[37]
  Anxiety score Mean (SD): 4.7 (3.21)
  Anxiety score Median: 4.0
Visit 10, total subjects N=175
  Anxiety score Mean (SD): 5.6 (4.16)
  Anxiety score Median: 5.0
[38]
  Anxiety score Mean (SD): 5.9 (3.84)
  Anxiety score Median: 5.5
[39]
  Anxiety score Mean (SD): 6.3 (4.25)
  Anxiety score Median: 6.5
[40]
  Anxiety score Mean (SD): 5.1 (4.25)
  Anxiety score Median: 4.0
[41]
  Anxiety score Mean (SD): 5.6 (3.96)
  Anxiety score Median: 5.0
[42]
  Anxiety score Mean (SD): 4.8 (3.77)
  Anxiety score Median: 4.0
Visit 11, total subjects N=175
  Anxiety score Mean (SD): 5.4 (3.91)
  Anxiety score Median: 5.0
Visit 12
  Anxiety score change from baseline Mean (SD): −3.1 (3.16)
  Anxiety score change from baseline Median: −3.0
Visit 12, defined neuropathic
  Anxiety score change from baseline Mean (SD): −2.3 (4.14)
  Anxiety score change from baseline Median: −2.0
[43]
  Anxiety score Mean (SD): 5.7 (3.80)
  Anxiety score Median: 5.0
Visit 12, lumbar radiculopathy
  Anxiety score change from baseline Mean (SD): −2.2 (4.11)
  Anxiety score change from baseline Median: −2.0
Visit 12, nociceptive
  Anxiety score change from baseline Mean (SD): −0.8 (2.82)
  Anxiety score change from baseline Median: −1.0
[44]
  Anxiety score Mean (SD): 5.7 (3.59)
  Anxiety score Median: 6.0
[45]
  Anxiety score Mean (SD): 4.8 (3.67)
  Anxiety score Median: 4.0
[46]
  Anxiety score change from baseline Mean (SD): −2.5 (3.85)
  Anxiety score change from baseline Median: −2.0
[47]
  Anxiety score Mean (SD): 5.4 (3.76)
  Anxiety score Median: 5.0
[48]
  Anxiety score Mean (SD): 4.5 (3.65)
  Anxiety score Median: 3.0
Visit 12, total
  Anxiety score change from baseline Mean (SD): −2.1 (3.67)
  Anxiety score change from baseline Median: −2.0
Visit 12, total subjects N=175
  Anxiety score Mean (SD): 5.2 (3.73)
  Anxiety score Median: 4.0
Conclusion from the clinical data
  efficacy against anxiety: significant efficacy
